Results as given in US9315487B2, “Tetrahydroquinoline derivatives useful as bromodomain inhibitors” (GlaxoSmithKline LLC, priority 2011, dated 2016).
“And” between values parts separate entries of the source, which are not always exact repeats. Equal values may be shown once.

What was measured:
[1] = biological target: T1, Bromodomain BRD2, BRD3 and BRD4; test: Fluorescence Anisotropy Binding Assay; set-up: species or system Human; details: tested in one or more of the BRD2, BRD3, BRD4 fluorescence anisotropy assays
T1 construct: fused on or other part: six-His tag at the N-terminus
From the text: Fluorescence Anisotropy Binding Assay
The binding of the compounds of formula (I) to Bromodomain BRD2, BRD3 and BRD4 may be assessed using a Fluorescence Anisotropy Binding Assay.
All data was normalized to the mean of 16 high and 16 low control wells on each plate. A four parameter curve fit of the following form was then applied: y=a+((b−a)/(1+(10^x/10^c)^d)
Where ‘a’ is the minimum, ‘b’ is the Hill slope, ‘c’ is the pIC50 and ‘d’ or is the maximum.
Recombinant Human Bromodomains (Bromodomain BRD2 (1-473), Bromodomain BRD3 (1-435) and Bromodomain BRD4 (1-477)) were expressed in E. coli cells (in pET15b vector) with a six-His tag at the N-terminal. The His-tagged Bromodomain was extracted from E. coli cells using 0.1 mg/ml lysozyme and sonication. […]
All components were dissolved in buffer composition of 50 mM HEPES pH7.4, 150 mm NaCl and 0.5 mM CHAPS with final concentrations of Bromodomain 2, 75 nM, fluorescent ligand 5 nM. […] Fluorescence anisotropy was read in Envision (λex=485 nm, λEM=530 nm; Dichroic −505 nM). […]
All components were dissolved in buffer of composition 50 mM HEPES pH7.4, 150 mm NaCl and 0.5 mM CHAPS with final concentrations of Bromodomains 3 75 nM, fluorescent ligand 5 nM. […] Fluorescence anisotropy was read in Envision (λex=485 nm, λEM=530 nm; Dichroic −505 nM). […]

[2] = test system: LPS induced IL-6 secretion from whole blood; test: Measurement of LPS induced IL-6 secretion from whole blood; assay type: cell-based; details: 24 h, LPS 200 ng/ml, IL-6 by immunoassay
Experimental: Measurement of LPS Induced IL-6 Secretion from Whole Blood
Activation of monocytic cells by agonists of toll-like receptors such as bacterial lipopolysaccharide (LPS) results in production of key inflammatory mediators including IL-6. Such pathways are widely considered to be central to the pathophysiology of a range of auto-immune and inflammatory disorders.
Compounds to be tested are diluted to give a range of appropriate concentrations of which 1 μl of the diluted stocks is added to a 96 well plate. Following addition of whole blood (130 μl) the plates are incubated at 37 degrees (5% CO2) for 30 min before the addition of 10 μl of 2.8 ug/ml LPS, diluted in complete RPMI 1640 (final concentration=200 ng/ml), to give a total volume of 140 ul per well. After further incubation for 24 hours at 37 degrees, 140 μl of PBS are added to each well. The plates are sealed, shaken for 10 minutes and then centrifuged (2500 rpm×10 min). 100 μl of the supernatant are removed and IL-6 levels assayed by immunoassay (typically by MesoScale Discovery technology) either immediately or following storage at −20 degrees. Concentration response curves for each compound was generated from the data and an IC50 value was calculated

[3] = Measurement of HPV infected cells: C33A negative control cell viability; assay type: cell-based; details: human, 3 μM, normalised to DMSO control, read-out: Viability at the maximal tested concentration
Experimental: (§1) Measurement of HPV Infected Cells The […] cell clone #20850, derived from a low grade cervical […] (Stanley et al., Int. J. Cancer. V. 43. p. 672-676. 1989), carries episomal HPV16 genomes, maintained at approximately 100 copies per cell. Epithelial cell line C33A, which is not infected with any HPV strain was used as a negative control cell to assess non-specific cytotoxicity. […] and C33A cells were cultured with the compound of Example 2 for 2 days and viable cell content monitored by assaying [ATP] at end of this period. Data was normalised to DMSO control treated cells on day 2.

C33A cells = test: as above; assay type: cell-based; details: 2 days, [ATP] assay
Experimental: as §1

Bromodomain BRD3 = biological target: T2, Bromodomain BRD3 (Homo sapiens, UniProt Q15059); test: Time Resolved Fluorescence Resonance Energy Transfer (TR-FRET) assay, BRD3; assay type: binding; details: BRD3 (1-435), acetylated histone peptide
T2 construct: BRD3 (1-435); made in house; host or cells: E. coli (pET15b vector)
T2 sequence (Q15059 1-435): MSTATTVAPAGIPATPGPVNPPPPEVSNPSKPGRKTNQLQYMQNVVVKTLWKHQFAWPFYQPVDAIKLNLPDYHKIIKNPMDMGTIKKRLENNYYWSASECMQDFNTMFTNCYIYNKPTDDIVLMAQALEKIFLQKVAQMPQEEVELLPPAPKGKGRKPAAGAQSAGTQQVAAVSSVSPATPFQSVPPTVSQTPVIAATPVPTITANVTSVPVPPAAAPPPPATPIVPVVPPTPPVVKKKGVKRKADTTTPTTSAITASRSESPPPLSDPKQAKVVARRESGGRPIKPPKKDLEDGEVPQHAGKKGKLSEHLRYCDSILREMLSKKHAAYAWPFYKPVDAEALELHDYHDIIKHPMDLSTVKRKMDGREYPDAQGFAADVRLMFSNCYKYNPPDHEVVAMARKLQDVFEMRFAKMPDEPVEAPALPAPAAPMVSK
Experimental: (§2) Time Resolved Fluorescence Resonance […] Transfer (TR-FRET) Assay
(§3) The binding of the compounds of formula (I) to Bromodomains BRD2, BRD3 and BRD4 was assessed using a time resolved fluorescent resonance energy transfer binding assay, that measures the binding of an acetylated histone peptide to the bromodomain protein.
(§4) The bromodomain protein, histone peptide and a variable concentration of test compound are incubated together to reach thermodynamic equilibrium.
(§5) The protected peptide was assembled on a solid-phase synthesiser using preloaded Wang resin and utilising standard Fmoc synthesis protocols. The C-terminal lysine was protected by a hyper acid-labile group allowing for its selective removal at the end of the assembly and attachment of the biotin. The crude peptide was obtained after cleavage from the resin with a mixture of trifluoroacetic acid (TFA), triisopropylsilane and water (95:2.5:2.5) for 3 h at room temperature and was then purified using a C18 reverse-phase column utilising a 0.1% TFA-buffered water/acetonitrile gradient. The resulting fractions were analysed and fractions which were >95% pure by analytical HPLC and giving the correct mw (by MALDiTOF mass spectroscopy) were pooled and freeze dried. The final material was analysed by HPLC to confirm purity.
(§6) Recombinant Human Bromodomains (BRD2 (1-473), BRD3 (1-435) and BRD4 (1-477)) were expressed in E. coli cells (in pET15b vector) with a six-His tag at the N-terminal. The His-tagged Bromodomain was extracted from E. coli cells using sonication and purified using a nickel sepharose 6FF column, the proteins were washed and then eluted with 50 mM Tris-Hcl pH8.0. 300 mM NaCl, 1 mM β-mercaptoethanol and 20 mM Imidazole. Further purification was performed by affinity chromatography on a HisTRAP HP column, eluting with a linear 0-500 mM […] gradient, over 20 column volumes. Final purification was completed by Superdex 200 prep grade size exclusion column. Purified protein was stored at −80 C in 20 mM HEPES pH 7.5 and 100 mM NaCl. Protein identity was confirmed by peptide mass fingerprinting and predicted molecular weight confirmed by mass spectrometry.
(§7) Protocol for Bromodomain BRD2, 3 and 4 Assays:
(§8) All assay components were dissolved in buffer composition of 50 mM HEPES pH7.4, 50 mM NaCl and 0.5 mM CHAPS. The final concentration of bromodomain proteins were 100 nM and the histone peptide was 300 nM, these components are premixed and allowed to equilibrate for 1 hour in the dark. 8 μl of this reaction mixture was added to all wells containing 50 nl of various concentrations of test compound or DMSO vehicle (0.5% final) in Greiner 384 well black low volume microtitre plates and incubated in dark for 60 mins at room temperature. […] detection mixture containing anti-6his XL665 labeled antibody and streptavidin labeled with europium cryptate was added to all wells and a further dark incubation of at least 30 mins was performed. Plates were then read on the Envision platereader, (λex=317 nm, donor λEM=615 nm; acceptor λEM=665 nm; Dichroic LANCE dual). Time resolved fluorescent intensity measurements were made at both emission wavelengths and the ratio of acceptor/donor was calculated and used for data analysis. All data was normalized to the mean of 16 high and 16 low control wells on each plate. A four parameter curve fit of the following form was then applied: y=a+((b−a)/(1+(10^x/10^c)^d)
(§9) Where ‘a’ is the minimum, ‘b’ is the Hill slope, ‘c’ is the pIC50 and ‘d’ is the maximum.

Bromodomain BRD4 = biological target: T3, Bromodomain BRD4 (Homo sapiens, UniProt O60885); test: Time Resolved Fluorescence Resonance Energy Transfer (TR-FRET) assay, BRD4; assay type: binding; details: BRD4 (1-477), acetylated histone peptide
T3 construct: BRD4 (1-477); made in house; host or cells: E. coli (pET15b vector)
Experimental: as §2, §3, §4, §5, §6, §7, §8, §9

[4] = test system: W12 cells (episomal HPV16 genomes); test: Measurement of HPV infected cells: W12 cell viability; assay type: cell-based; details: Human papillomavirus 16, 48 h, 2 days
Experimental: as §1

Bromodomain BRD2 = biological target: T4, Bromodomain BRD2 (Homo sapiens, UniProt P25440); test: Time Resolved Fluorescence Resonance Energy Transfer (TR-FRET) assay, BRD2; assay type: binding; details: BRD2 (1-473), acetylated histone peptide
T4 construct: BRD2 (1-473); made in house; host or cells: E. coli (pET15b vector)
T4 sequence (P25440 1-473): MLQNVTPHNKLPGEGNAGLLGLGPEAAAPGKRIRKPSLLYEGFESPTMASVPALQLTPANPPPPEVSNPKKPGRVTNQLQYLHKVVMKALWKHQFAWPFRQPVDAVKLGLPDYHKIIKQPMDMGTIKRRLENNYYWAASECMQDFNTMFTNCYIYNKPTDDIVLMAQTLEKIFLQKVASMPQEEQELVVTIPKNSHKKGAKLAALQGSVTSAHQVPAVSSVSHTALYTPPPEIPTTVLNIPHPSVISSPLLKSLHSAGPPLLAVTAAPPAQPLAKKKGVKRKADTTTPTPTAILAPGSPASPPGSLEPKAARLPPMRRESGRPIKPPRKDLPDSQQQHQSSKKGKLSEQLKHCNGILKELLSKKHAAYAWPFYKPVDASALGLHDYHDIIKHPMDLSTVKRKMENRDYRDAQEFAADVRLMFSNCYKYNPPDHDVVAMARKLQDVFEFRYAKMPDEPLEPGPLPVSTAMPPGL
Experimental: as §2, §3, §4, §5, §6, §7, §8, §9

pIC50 [1]	IC50 [2] [nM]	IC50 (Bromodomain BRD3)	IC50 (Bromodomain BRD4)	IC50 (Bromodomain BRD2)	Compound	viability at 2 days, 3 µM [3] [%]	effect on C33A negative control cells (viability) (C33A cells)	viability at 3 µM ([4]; 3 μM, normalised to DMSO control, read-out: Viability at the maximal tested concentration) [%]	IC50 ([4]; [ATP] assay, n=4, read-out: mean pIC50 value, W12 cell viability (converted)) [nM]
≥ 6.5	126 to 1000	–	–	–	COCCn1cc(-c2ccc3c(c2)[C@H](NC(=O)OC(C)C)C[C@H](C)N3C(C)=O)cn1 [Example 1, 1-methylethyl ((2S,4R)-1-acetyl-2-methyl-6-{1-[2-(methyloxy)ethyl]-1H-pyrazol-4-yl}-1,2,3,4-tetrahydro-4-quinolinyl)carbamate]	–	–	–	–
–	126 to 1000	63.1 to 316 nM	63.1 to 316 nM	63.1 to 316 nM	COCCn1cc(-c2ccc3c(c2)[C@H](Nc2ccc(C#N)cn2)C[C@H](C)N3C(C)=O)nn1 [Example 3, 6-(((2S,4R)-1-acetyl-6-(1-(2-methoxyethyl)-1H-1,2,3-triazol-4-yl)-2-methyl-1,2,3,4-tetrahydroquinolin-4-yl)amino)nicotinonitrile]	–	–	–	–
–	126 to 1000	63.1 to 316 nM	63.1 to 316 nM	63.1 to 316 nM	COCCn1ncc(-c2ccc3c(c2)[C@H](Nc2ccc(C#N)cn2)C[C@H](C)N3C(C)=O)n1 [Example 4, 6-(((2S,4R)-1-acetyl-6-(2-(2-methoxyethyl)-2H-1,2,3-triazol-4-yl)-2-methyl-1,2,3,4-tetrahydroquinolin-4-yl)amino)nicotinonitrile]	–	–	–	–
–	126 to 1000	63.1 to 316 nM	63.1 to 316 nM	63.1 to 316 nM	COCCn1cc(-c2ccc3c(c2)[C@H](Nc2ccc(Cl)cn2)C[C@H](C)N3C(C)=O)cn1 [Example 5, 1-((2S,4R)-4-((5-chloropyridin-2-yl)amino)-6-(1-(2-methoxyethyl)-1H-pyrazol-4-yl)-2-methyl-3,4-dihydroquinolin-1(2H)-yl)ethanone]	–	–	–	–
–	126 to 1000	63.1 to 316 nM	63.1 to 316 nM	63.1 to 316 nM	COCCn1cc(-c2ccc3c(c2)[C@H](Nc2ccc(C)cn2)C[C@H](C)N3C(C)=O)cn1 [Example 6, 1-((2S,4R)-6-(1-(2-methoxyethyl)-1H-pyrazol-4-yl)-2-methyl-4-((5-methylpyridin-2-yl)amino)-3,4-dihydroquinolin-1(2H)-yl)ethanone]	–	–	–	–
–	126 to 1000	63.1 to 316 nM	63.1 to 316 nM	63.1 to 316 nM	COCCn1cc(-c2ccc3c(c2)[C@H](Nc2cccc(Cl)c2)C[C@H](C)N3C(C)=O)cn1 [Example 7, 1-((2S,4R)-4-((3-chlorophenyl)amino)-6-(1-(2-methoxyethyl)-1H-pyrazol-4-yl)-2-methyl-3,4-dihydroquinolin-1(2H)-yl)ethanone]	–	–	–	–
–	126 to 1000	63.1 to 316 nM	63.1 to 316 nM	63.1 to 316 nM	COCCn1cc(-c2ccc3c(c2)[C@H](Nc2cnc(C)cn2)C[C@H](C)N3C(C)=O)cn1 [Example 8, 1-((2S,4R)-6-(1-(2-methoxyethyl)-1H-pyrazol-4-yl)-2-methyl-4-((5-methylpyrazin-2-yl)amino)-3,4-dihydroquinolin-1(2H)-yl)ethanone]	–	–	–	–

Compound	pIC50 [1]	IC50 [2] [nM]	IC50 (Bromodomain BRD3)	IC50 (Bromodomain BRD4)	IC50 (Bromodomain BRD2)	viability at 2 days, 3 µM [3] [%]	effect on C33A negative control cells (viability) (C33A cells)	viability at 3 µM ([4]; 3 μM, normalised to DMSO control, read-out: Viability at the maximal tested concentration) [%]	IC50 ([4]; [ATP] assay, n=4, read-out: mean pIC50 value, W12 cell viability (converted)) [nM]
COCCn1cc(-c2ccc3c(c2)[C@H](Nc2ccc(C#N)cn2)C[C@H](C)N3C(C)=O)cn1 [Example 2, 6-(((2S,4R)-1-acetyl-6-(1-(2-methoxyethyl)-1H-pyrazol-4-yl)-2-methyl-1,2,3,4-tetrahydroquinolin-4-yl)amino)nicotinonitrile]	–	200	63.1 to 126 nM and 63.1 to 316 nM	63.1 to 126 nM and 63.1 to 316 nM	63.1 to 126 nM and 63.1 to 316 nM	73.5	limited effect	34.8	81.3
